Activity calls are given as the source filed them. No cut-off for these calls is given here.
Tests used:
[1] = target: T1, Melatonin receptor type 1A (Homo sapiens, UniProt P48039); experiment: Displacement of 2-[125I]-iodomelatonin from human MT1 receptor expressed in CHO cells; format: cell-based
[2] = target: T2, Melatonin receptor type 1B (Homo sapiens, UniProt P49286); experiment: Displacement of 2-[125I]-iodomelatonin from human MT2 receptor expressed in CHO cells; format: cell-based
T2 sequence (P49286 whole entry): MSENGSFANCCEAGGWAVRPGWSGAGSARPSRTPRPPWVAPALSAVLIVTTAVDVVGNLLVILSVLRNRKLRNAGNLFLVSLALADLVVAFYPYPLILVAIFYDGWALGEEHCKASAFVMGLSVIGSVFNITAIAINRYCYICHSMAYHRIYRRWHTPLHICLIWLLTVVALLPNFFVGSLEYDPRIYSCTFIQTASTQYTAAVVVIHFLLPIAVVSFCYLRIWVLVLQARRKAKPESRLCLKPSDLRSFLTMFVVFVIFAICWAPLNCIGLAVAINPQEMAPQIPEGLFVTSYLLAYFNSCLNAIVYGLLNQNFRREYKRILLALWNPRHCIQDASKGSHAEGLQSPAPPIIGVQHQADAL

Homo sapiens = species on record: Homo sapiens; experiment: Selectivity ratio of Ki for human MT1 receptor to Ki for human MT2 receptor
[3] = target: T3, Melatonin receptor type 1B (Homo sapiens) (UniProt P49286); experiment: Intrinsic activity at human MT2 receptor expressed in CHO cells; format: cell-based
T3 sequence (whole entry): T2 sequence (P49286 whole entry)

[4] = target: T3, Melatonin receptor type 1B (Homo sapiens); experiment: Antagonist activity at human MT2 receptor expressed in CHO cells assessed as inhibition of melatonin-induced activity at 10 to 100 nM; format: cell-based
[5] = target: T1, Melatonin receptor type 1A; experiment: Antagonist activity at human MT1 receptor expressed in CHO cells assessed as inhibition of melatonin-induced activity at 10 to 100 nM; format: cell-based
[6] = target: T1, Melatonin receptor type 1A; experiment: Intrinsic activity at human MT1 receptor expressed in CHO cells; format: cell-based

T1 sequence (P48039 whole entry): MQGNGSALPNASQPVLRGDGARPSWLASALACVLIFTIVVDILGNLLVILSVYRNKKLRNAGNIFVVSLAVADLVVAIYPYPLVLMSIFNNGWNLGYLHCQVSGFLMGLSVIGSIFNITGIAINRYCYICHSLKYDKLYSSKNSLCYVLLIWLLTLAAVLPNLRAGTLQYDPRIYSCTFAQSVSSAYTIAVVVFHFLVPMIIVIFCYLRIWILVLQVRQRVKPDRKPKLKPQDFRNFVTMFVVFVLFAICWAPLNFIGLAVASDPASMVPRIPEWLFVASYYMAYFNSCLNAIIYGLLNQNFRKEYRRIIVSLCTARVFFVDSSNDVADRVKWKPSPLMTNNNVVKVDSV

| SMILES | Ki [1] [nM] | Ki [2] [nM] | Ratio Ki (Homo sapiens) | Activity [3] | inhibition [4] | inhibition [5] | Activity [6] |
| --- | --- | --- | --- | --- | --- | --- | --- |
| CCC(=O)NCCCc1cc(OC)ccc1OCc1cccc(OC)c1 | 1350 | 1.7 | 790 |  |  |  |  |
| COc1ccc2[nH]c(CN3Cc4ccccc4C3)c(CCNC(C)=O)c2c1 | 282 | 2.24 | 124 | inactive | Active | Active | inactive |
| COc1ccc2[nH]c(CN3CCc4ccccc4C3)c(CCNC(C)=O)c2c1 | 251 | 21.4 |  |  |  |  |  |
| COc1ccc2[nH]c(Cn3ccc4ccccc43)c(CCNC(C)=O)c2c1 | 182 | 5.75 |  |  |  |  |  |
| COc1ccc2[nH]c(CN3CCc4ccccc43)c(CCNC(C)=O)c2c1 |  |  | 95 |  |  |  |  |

The remaining molecules from weak to strong by Ki [1], led by results:

| Ki [1] [nM] | Ki [2] [nM] | Ratio Ki (Homo sapiens) | Activity [3] | inhibition [4] | inhibition [5] | Activity [6] | SMILES |
| --- | --- | --- | --- | --- | --- | --- | --- |
| 112 | 200 |  |  |  |  |  | COc1ccc2[nH]c(CN3Cc4ccccc4C3)c(CCNC(=O)C3CCC3)c2c1 |
| 61.7 | 33.9 |  |  |  |  |  | COc1ccc2[nH]c(CN3Cc4ccccc4C3)c(CCNC(=O)C3CC3)c2c1 |
| 57.5 | 81.3 |  |  |  |  |  | COc1ccc2[nH]c(Cn3ccc4ccccc43)c(CCNC(=O)C3CCC3)c2c1 |
| 24 | 9.33 |  |  |  |  |  | C=CCC(=O)NCCc1c(CN2Cc3ccccc3C2)[nH]c2ccc(OC)cc12 |
| 5.62 | 3.72 |  |  |  |  |  | CCC(=O)NCCc1c(CN2Cc3ccccc3C2)[nH]c2ccc(OC)cc12 |

From ChEMBL document CHEMBL3217409 (Medchemcomm, 2011)
